As usually defined, the IC50 is the concentration needed to halve the response being measured.

Molecules are shown by their SMILES. Starred links: 1 amine or outer side, 2 acyl side, 3 side chain; linkers in the order of their positions; H or OH if unused. Positions of bridges follow the written chain, without caps; N, C: chain ends. Non-standard residues stand in square brackets, D forms with d. Residues, ends and D or L forms follow the SMILES beside them. ξ: configuration not given here. Tyrψ(CN4)Ala = C[C@@H](C(=O)[*:2])n1nnnc1[C@H](Cc1ccc(O)cc1)N[*:1]; X1 = CCCC[C@@H](C(=O)[*:2])n1nnnc1[C@H](Cc1c[nH]c2ccccc12)N[*:1]; X5 = C[C@@H](C(=O)[*:2])n1nnnc1[C@H](Cc1ccccc1)N[*:1]; Bta = N[C@@H](Cc1csc2ccccc12)C(=O)O; Hyp = O=C(O)[C@@H]1C[C@@H](O)CN1; NMeNle = CCCC[C@H](NC)C(=O)O; ξH = NC(Cc1c[nH]cn1)C(=O)O; NMeA = CN[C@@H](C)C(=O)O; Orn = NCCC[C@H](N)C(=O)O; Dab = NCC[C@H](N)C(=O)O; Dap = NC[C@H](N)C(=O)O

For the experiment, the target named is T1, PD-1-Ig/PD-L1-His (Homo sapiens, UniProt Q9NZQ7).
T1 construct: [hPD-L1(19-239)-tobacco vein mottling virus protease cleavage site (TVMV)-His]; made in house; host or cells: HEK293T cells
T1 sequence (Q9NZQ7 with tags, fused parts or gaps): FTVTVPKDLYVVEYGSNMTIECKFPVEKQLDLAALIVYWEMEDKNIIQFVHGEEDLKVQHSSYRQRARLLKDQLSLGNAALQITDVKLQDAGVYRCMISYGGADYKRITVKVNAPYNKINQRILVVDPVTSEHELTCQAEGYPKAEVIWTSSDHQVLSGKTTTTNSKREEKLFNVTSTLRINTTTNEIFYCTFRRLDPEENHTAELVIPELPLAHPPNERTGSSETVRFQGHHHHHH
Nature of the experiment: PD-1/PD-L1 Homogenous Time-Resolved Fluorescence (HTRF) binding assay. To be noted: inhibition of PD-1-Ig binding to PD-L1-TVMV-His; range classes. The source says: The ability of the macrocyclic peptides of the present disclosure to bind to PD-L1 was investigated using a PD-1/PD-L1 Homogenous Time-Resolved Fluorescence (HTRF) binding assay.
Homogenous Time-Resolved Fluorescence (HTRF) Assays of Binding of Soluble PD-1 to Soluble PD-L1. Soluble PD-1 and soluble PD-L1 refers to proteins with carboxyl-end truncations that remove the transmembrane-spanning regions and are fused to heterologous sequences, specifically the Fc portion of the human immunoglobuling G sequence (Ig) or the hexahistidine epitope tag (SEQ ID NO: 3) (His). All binding studies were performed in an HTRF assay buffer consisting of dPBS supplemented with 0.1% (w/v) bovine serum albumin and 0.05% (v/v) Tween-20. For the PD-1-Ig/PD-L1-His binding assay, inhibitors were pre-incubated with PD-L1-His (10 nM final) for 15 m in 4 μl of assay buffer, followed by addition of PD-1-Ig (20 nM final) in 1 μl of assay buffer and further incubation for 15 m. PD-L1 fusion proteins from either human, cynomologous macaques, mouse, or other species were used. HTRF detection was achieved using europium crypate-labeled anti-Ig monoclonal antibody (1 nM final) and allophycocyanin (APC) labeled anti-His monoclonal antibody (20 nM final). Antibodies were diluted in HTRF detection buffer and 5 μl was dispensed on top of binding reaction. The reaction was allowed to equilibrate for 30 minutes and signal (665 nm/620 nm ratio) was obtained using an EnVision fluorometer. Additional binding assays were established between PD-1-Ig/PD-L2-His (20 and 5 nM, respectively), CD80-His/PD-L1-Ig (100 and 10 nM, respectively) and CD80-His/CTLA4-Ig (10 and 5 nM, respectively). Binding/competition studies between biotinylated Compound No. 71 and human PD-L1-His were performed as follows. Macrocyclic peptide inhibitors were pre-incubated with PD-L1-His (10 nM final) for 60 minutes in 4 μl of assay buffer followed by addition of biotinylated Compound No. 71 (0.5 nM final) in 1 μl of assay buffer. Binding was allowed to equilibrate for 30 minutes followed by addition of europium crypated labeled Streptavidin (2.5 pM final) and APC-labeled anti-His (20 nM final) in 5 μl of HTRF buffer. The reaction was allowed to equilibrate for 30 m and signal (665 nm/620 nm ratio) was obtained using an EnVision fluorometer.
Recombinant Proteins. Carboxyl-truncated human PD-1 (amino acids 25-167) with a C-terminal human Ig epitope tag [hPD-1 (25-167)-3S-IG] and human PD-L1 (amino acids 18-239) with a C-terminal His epitope tag [hPD-L1(19-239)-tobacco vein mottling virus protease cleavage site (TVMV)-His] were expressed in HEK293T cells and purified sequentially by recombinant Protein A affinity chromatography and size exclusion chromatography. Human PD-L2-His (Sino Biologicals), CD80-His (Sino Biologicals), CTLA4-Ig (RnD Systems) were all obtained through commercial sources.
On the technique in general: In TR-FRET formats the signal depends on donor and acceptor labels being close together.
The compound `CCCC[C@H]1C(=O)N(C)CC(=O)N[C@@H](CC(=O)O)C(=O)N[C@@H](C(C)C)C(=O)N(C)[C@@H](Cc2ccccc2)C(=O)N[C@@H](Cc2ccc(O)cc2)C(=O)N(C)CC(=O)N[C@@H](Cc2c[nH]c3ccccc23)C(=O)N[C@@H](Cc2ccc(O)cc2)C(=O)N[C@@H](CC(C)C)C(=O)N[C@H](C(=O)NCC(N)=O)CSCC(=O)NC(Cc2ccccc2)c2nnnn2[C@@H](Cc2ccccc2)C(=O)N1C` (single isomer, unassigned) [Example 3002] gave an IC50 of 0.1 to 10 µM. The compound `CCCCC1C(=O)N(C)[C@@H](CCCC)C(=O)N[C@@H](CCCNC(=N)N)C(=O)N[C@H](C(=O)NCC(N)=O)CSCC(=O)N[C@@H](Cc2ccccc2)c2nnnn2[C@@H](C)C(=O)N[C@@H](CC(N)=O)C(=O)N2CCC[C@H]2C(=O)N[C@@H](Cc2cnc[nH]2)C(=O)N[C@@H](CC(C)C)C(=O)N(C)CC(=O)N[C@@H](Cc2c[nH]c3ccccc23)C(=O)N[C@@H](CO)C(=O)N[C@@H](Cc2cccc3ccccc23)c2nnnn21` (stereo partly shown) [Example 1007] gave an IC50 of 0.1 to 10 µM. The compound `CCCC[C@H]1C(=O)N(C)CC(=O)N[C@@H](CC(=O)O)C(=O)N[C@@H](C(C)C)C(=O)N(C)[C@@H](Cc2ccccc2)C(=O)N[C@@H](Cc2ccc(O)cc2)C(=O)N(C)CC(=O)N[C@@H](Cc2c[nH]c3ccccc23)C(=O)N[C@@H](Cc2ccc(O)cc2)C(=O)N[C@@H](CC(C)C)C(=O)N[C@H](C(=O)NCC(N)=O)CSCC(=O)NC(Cc2ccccc2)c2nnnn2[C@@H](Cc2ccccc2)C(=O)N1C` (single isomer, unassigned) [Example 3001] displayed an IC50 of 0.1 to 10 µM.

As for `CCCC[C@H]1C(=O)N(C)[C@@H](CCCC)C(=O)N[C@@H](CC(C)C)C(=O)N[C@H](C(=O)NCC(=O)O)CSCC(=O)N[C@@H](Cc2ccc(O)cc2)c2nnnn2[C@@H](C)C(=O)N[C@@H](CC(N)=O)C(=O)N2CCC[C@H]2C(=O)NC(Cc2c[nH]cn2)C(=O)N[C@@H](CCC(N)=O)C(=O)N2C[C@H](O)C[C@H]2C(=O)N[C@@H](Cc2c[nH]c3ccccc23)C(=O)N[C@@H](CO)C(=O)N[C@@H](Cc2csc3ccccc23)C(=O)N1C` (stereo partly shown) [Example 1061] ({CH2CO}-[Tyrψ(CN4)Ala]NP[ξH]Q[Hyp]WS[Bta][NMeNle][NMeNle]LCG-OH; thioether N-13), the 50% inhibitory concentration (IC50) fell in the range of 0.1 to 10 µM. To `CCCC[C@H]1C(=O)N(C)[C@@H](CCCC)C(=O)N[C@@H](CCCNC(=N)N)C(=O)N[C@H](C(=O)NCC(N)=O)CSCC(=O)N[C@@H](Cc2ccccc2)c2nnnn2[C@@H](C)C(=O)N[C@@H](CC(N)=O)C(=O)N2CCC[C@H]2C(=O)N[C@@H](Cc2cnc[nH]2)C(=O)N[C@@H](CC(C)C)C(=O)N(C)CC(=O)N[C@@H](Cc2c[nH]c3ccccc23)C(=O)N[C@@H](CO)C(=O)N[C@@H](Cc2c[nH]c3ccccc23)C(=O)N1C` (single isomer, unassigned) [Example 1001] belongs 0.1 to 10 µM.

Turning to `CCCC[C@H]1C(=O)N(C)[C@@H](CCCC)C(=O)N[C@@H](CCCNC(=N)N)C(=O)N[C@H](C(=O)NCC(N)=O)CSCC(=O)N[C@@H](Cc2ccccc2)c2nnnn2[C@@H](C)C(=O)N[C@@H](CC(N)=O)C(=O)N2CCC[C@H]2C(=O)N[C@@H](Cc2cnc[nH]2)C(=O)N[C@@H](CC(C)C)C(=O)N2CCC[C@H]2C(=O)N[C@@H](Cc2c[nH]c3ccccc23)C(=O)N[C@@H](CO)C(=O)N[C@@H](Cc2csc3ccccc23)C(=O)N1C` [Example 1010] ({CH2CO}-[X5]NPHLPWS[Bta][NMeNle][NMeNle]RCG-NH2; thioether N-13), the half-maximal inhibitory concentration (IC50) was 0.1 to 10 µM. As for `CCCC[C@H]1C(=O)N[C@@H](CN)C(=O)N[C@H](C(=O)NCC(N)=O)CSCC(=O)N[C@@H](Cc2ccc(O)cc2)C(=O)N(C)[C@@H](C)C(=O)N[C@@H](CC(=O)O)C(=O)N2CCC[C@H]2C(=O)N[C@@H](Cc2cnc[nH]2)C(=O)N[C@@H](CCC(N)=O)C(=O)N2C[C@H](O)C[C@H]2C(=O)N[C@@H](Cc2c[nH]c3ccccc23)C(=O)N[C@@H](CO)C(=O)N[C@@H](Cc2cccc3ccccc23)c2nnnn2[C@@H](CCCC)C(=O)N1C` [Example 1107], the IC50 is 0.1 to 10 µM.

Take `CCCC[C@H]1C(=O)N(C)[C@@H](CCCC)C(=O)N[C@@H](CC(C)C)C(=O)N[C@H](C(=O)NCC(N)=O)CSCC(=O)N[C@@H](Cc2ccc(O)cc2)c2nnnn2[C@@H](C)C(=O)N[C@@H](CC(N)=O)C(=O)N2CCC[C@H]2C(=O)N[C@@H](Cc2cnc[nH]2)C(=O)N[C@@H](CCC(N)=O)C(=O)N2C[C@H](O)C[C@H]2C(=O)N[C@@H](Cc2c[nH]c3ccccc23)C(=O)N[C@@H](CO)C(=O)N[C@@H](Cc2c[nH]c3ccccc23)C(=O)N1C` [Example 1057] ({CH2CO}-[Tyrψ(CN4)Ala]NPHQ[Hyp]WSW[NMeNle][NMeNle]LCG-NH2; thioether N-13): the IC50 lay within 0.1 to 10 µM. As to `CCCC[C@@H]1C(=O)N[C@@H](CCCNC(=N)N)C(=O)N[C@H](C(=O)NCC(N)=O)CSCC(=O)N[C@@H](Cc2ccccc2)c2cnnn2[C@@H](C)C(=O)N[C@H](CC(N)=O)C(=O)N2CCC[C@H]2C(=O)N[C@@H](Cc2cnc[nH]2)C(=O)N[C@@H](CC(C)C)C(=O)N(C)CC(=O)N[C@@H](Cc2c[nH]c3ccccc23)C(=O)N[C@@H](CO)C(=O)N[C@@H](Cc2c[nH]c3ccccc23)C(=O)N(C)[C@@H](CCCC)C(=O)N1C` (single isomer, unassigned) [Example 1004], the IC50 was 0.1 to 10 µM.

The compound `CCCC[C@H]1C(=O)N[C@@H](CCCN)C(=O)N[C@H](C(=O)NCC(N)=O)CSCC(=O)N[C@@H](Cc2ccc(O)cc2)C(=O)N(C)[C@@H](C)C(=O)N[C@@H](CC(N)=O)C(=O)N2CCC[C@H]2C(=O)N[C@@H](Cc2cnc[nH]2)C(=O)N[C@@H](CC(C)C)C(=O)N2C[C@H](O)C[C@H]2C(=O)N[C@@H](Cc2c[nH]c3ccccc23)C(=O)N[C@@H](CO)C(=O)N[C@@H](Cc2c[nH]c3ccccc23)c2nnnn2[C@@H](CCCC)C(=O)N1C` [Example 1050] ({CH2CO}-Y[NMeA]NPHL[Hyp]WS[X1][NMeNle][Orn]CG-NH2; thioether N-13) gave an IC50 of 0.1 to 10 µM.

In turn, `CCCC[C@H]1C(=O)N[C@@H](CN)C(=O)N[C@H](C(=O)NCC(N)=O)CSCC(=O)N[C@@H](Cc2ccc(O)cc2)C(=O)N(C)[C@@H](C)C(=O)N[C@@H](CC(=O)O)C(=O)N2CCC[C@H]2C(=O)N[C@@H](Cc2c[nH]cn2)C(=O)N[C@@H](CCC(=O)O)C(=O)N2C[C@H](O)C[C@H]2C(=O)N[C@@H](Cc2c[nH]c3ccccc23)C(=O)N[C@@H](CO)C(=O)N[C@@H](Cc2cccc3ccccc23)c2nnnn2[C@@H](CCCC)C(=O)N1C` [Example 1108] came in with a half-inhibitory concentration (IC50) of 0.1 to 10 µM. Turning to `CCCC[C@@H]1C(=O)N[C@@H](CCCNC(=N)N)C(=O)N[C@H](C(=O)NCC(N)=O)CSCC(=O)N[C@@H](Cc2ccccc2)c2cnnn2[C@@H](C)C(=O)N[C@H](CC(N)=O)C(=O)N2CCC[C@H]2C(=O)N[C@@H](Cc2cnc[nH]2)C(=O)N[C@@H](CC(C)C)C(=O)N(C)CC(=O)N[C@@H](Cc2c[nH]c3ccccc23)C(=O)N[C@@H](CO)C(=O)N[C@@H](Cc2c[nH]c3ccccc23)C(=O)N(C)[C@@H](CCCC)C(=O)N1C` (single isomer, unassigned) [Example 1003], the IC50 is 0.1 to 10 µM. To `CCCC[C@H]1C(=O)N(C)[C@@H](CCCC)C(=O)N[C@@H](CCC(=O)O)C(=O)N[C@H](C(=O)NCC(N)=O)CSCC(=O)N[C@@H](Cc2ccc(O)cc2)c2nnnn2[C@@H](C)C(=O)N[C@@H](CC(=O)O)C(=O)N2CCC[C@H]2C(=O)N[C@@H](CN)C(=O)N[C@@H](CCC(=O)O)C(=O)N2C[C@H](O)C[C@H]2C(=O)N[C@@H](Cc2c[nH]c3ccccc23)C(=O)N[C@@H](CCN)C(=O)N[C@@H](Cc2c[nH]c3ccccc23)C(=O)N1C` [Example 1056] ({CH2CO}-[Tyrψ(CN4)Ala]DP[Dap]E[Hyp]W[Dab]W[NMeNle][NMeNle]ECG-NH2; thioether N-13) belongs 0.1 to 10 µM.

The record behind these values is patent US10450347B2, “Immunomodulators” (BRISTOL-MYERS SQUIBB COMPANY, priority 2015, dated 2019).
